In patent US4366160A, “Imidazole derivatives” (Hoffmann-La Roche Inc., priority 1980, dated 1982):

Experiments:
Format in all cases: in vivo
[1] = test system: Spontaneously hypertensive rat; assay: Cardiovascular activities: systolic blood pressure and heart rate in conscious spontaneously hypertensive rats (p.o.); conditions: maximum variation from control
Protocol: The cardiovascular activities can be determined according to the following method:
The systolic blood pressure and the heart rate are measured several times on conscious, spontaneously hypertensive female rats before the administration of the subtance. Per dosage there are used 5 experimental animals with a body weight of about 300 g. The administration of substance is carried out by means of a stomach probe. Both parameters are measured 1, 3, 6 and 16 hours after the administration and the percentage variation from the control values is calculated. The systolic blood pressure is measured indirectly at the tail artery of the rate according to the method of Gerold et al. (Helv. Physiol. Acta 24, 58-69 (1966); Arzneimittelforschung 18, 1285-1287 (1968).
(§1) In the Table which follows, the results obtained with compounds A to H are compiled. The maximum percentage variations from the control values are given.

[2] = test system: sympathetic nervous system; assay: Central sympathetic-inhibitory activity (cats in urethane narcosis); conditions: anaesthetized cat, i.v.; positive if sympathetic activity inhibited >30% for >30 minutes in blood pressure-lowering dosages
Source text: The central sympathetic-inhibitory activity can be determined according to the following method:
(§2) The action of the test compounds on the activity in the sympathetic nervous system is investigated on cats in urethane narcosis. The preganglionic sympathetic activity is derived by means of biopolar platinum electrodes from the splanchnic nerve and the postganglionic sympathetic activity is derived from a nerve branch to the kidney according to the method of G. Hausler [Naunyn-Schmiedeberg's Arch. Pharmacol. 286, 97-111 (1974)]. Moreover, there is measured the arterial blood pressure from the femoral artery as well as the heart rate. The test substance is injected intravenously. When a test substance in blood pressure-lowering dosages inhibits the sympathetic activity during more than 30 minutes by more than 30%, then it is qualified as having "central sympathetic-inhibitory activity".

writhing (mouse) = assay: Writhing test (mouse), 60 minutes after peroral administration; conditions: po, 1 h, orally, 60 minutes after administration, 50% of animals show no more than one writhing
Protocol: In carrying out the experiment there are used in each case 8 male mice (20-22 g) per dosage. 60 minutes after the oral administration of the test substance 10 ml/kg of the test solution is administered to the animals by intraperitoneal injection. After a latent period of 5 minutes, the number of animals in which during 5 minutes no more than one characteristic writhing symptom, that is, convulsive stretching movement of the body, occurs is registered. The ED 50 indicates the oral dosage in mg/kg at which 50% of the animals show no more than one writhing.
60 minutes after peroral administration

Anaesthetized cat = assay: Blood pressure and heart rate in the anaesthetized cat (i.v.); conditions: maximum variation from control
Protocol: as §2, §1

[3] = test system: morphine-antagonistic activity; assay: Morphine-antagonistic activity
[4] = test system: electrical stimulation of the dental pulp; assay: Activity against an electrical stimulation of the dental pulp in apes, peroral; conditions: after peroral administration
opiate receptor = assay: Cancellation of the analgesia by the opiate receptor blocker naloxone
α-adrenergic receptor = assay: Cancellation of the analgesia by the α-adrenergic receptor blocker yohimbine

Row | Compound | Blood pressure, Δ% ([1]; 1.0 mg/kg (p.o.)) | Heart rate, Δ% ([1]; 1.0 mg/kg (p.o.)) | Blood pressure, Δ% ([1]; 3.0 mg/kg (p.o.)) | Heart rate, Δ% ([1]; 3.0 mg/kg (p.o.)) | Blood pressure, Δ% ([1]; 10.0 mg/kg (p.o.)) | Heart rate, Δ% ([1]; 10.0 mg/kg (p.o.)) | Central sympathetic-inhibitory activity [2] | ED50 (writhing (mouse)) [mg/kg] | Heart rate, Δ% (Anaesthetized cat; 1.0 mg/kg (i.v.)) [%] | Blood pressure, Δ% (Anaesthetized cat; 1.0 mg/kg (i.v.)) [%] | Blood pressure, Δ% (Anaesthetized cat; 3.0 mg/kg (i.v.)) [%] | Heart rate, Δ% (Anaesthetized cat; 3.0 mg/kg (i.v.)) [%] | Heart rate, Δ% (Anaesthetized cat; 10.0 mg/kg (i.v.)) [%] | Blood pressure, Δ% (Anaesthetized cat; 10.0 mg/kg (i.v.)) [%] | further results
1 | CN(C1=NCCN1OCc1cccc[n+]1[O-])c1c(Cl)cccc1Cl [C, 2-[{[2-(2,6-Dichloro-N-methylanilino)-2-imidazolin-1-yl]oxy}methyl]pyridine 1-oxide] | +0.3% | +6.3% | +1.2% | -5.8% | +2.2% | +3.2% | none | 26 | -6 | – | – | – | – | – | Blood pressure, Δ% (Anaesthetized cat; 1.0 mg/kg (i.v.), (5')): -14%; Blood pressure, Δ% (Anaesthetized cat; 3.0 mg/kg (i.v.), (10')): -21%; Heart rate, Δ% (Anaesthetized cat; 3.0 mg/kg (i.v.), (10')): -22%; Blood pressure, Δ% (Anaesthetized cat; 10.0 mg/kg (i.v.), (10')): -21%; Heart rate, Δ% (Anaesthetized cat; 10.0 mg/kg (i.v.), (10')): -22%
2 | [O-][n+]1ccccc1CON1CCNC1=Nc1cccc(Cl)c1Cl [B, 2-([{2-[(2,3-Dichlorophenyl)imino]-1-imidazolidinyl}oxy]methyl)pyridine 1-oxide] | -4.1% | -11.8% | -7.8% | -8.4% | – | – | none | 1.3 | 0 | -5 | -25 | -6 | -6 | – | Blood pressure, Δ% (Anaesthetized cat; 10.0 mg/kg (i.v.), (15')): -50%
3 | Cc1cc[n+]([O-])c(CON2CCNC2=Nc2c(Cl)cccc2Cl)c1 [D, 2-([{2-[(2,6-Dichlorophenyl)imino]-1-imidazolidinyl}oxy]methyl)-4-methylpyridin 1-oxide] | -7.0% | -10.0% | -10.2% | -7.5% | -12.6% | -13.3% | none | 16 | – | – | -22 | -27 | – | – | Blood pressure, Δ% (Anaesthetized cat; 1.0 mg/kg (i.v.), (3')): -22%
4 | Cc1cccc(CON2CCNC2=Nc2c(Cl)cccc2Cl)[n+]1[O-] [G, 2-([{2-[(2,6-Dichlorophenyl)imino]-1-imidazolidinyl}oxy]methyl)-6-methylpyridin 1-oxide] | – | – | – | – | -12.0% | -22.6% | none | 16 | 0 | -4 | -4 | -4 | -13 | -15 | –
5 | [O-][n+]1ccc(O)cc1CON1CCNC1=Nc1c(Cl)cccc1Cl [H, 2-([{2-[(2,6-Dichlorophenyl)imino]-1-imidazolidinyl}oxy]methyl)-4-pyridinol 1-oxide] | – | – | – | – | – | – | none | 8.7 | 0 | -12 | – | -2 | – | – | Blood pressure, Δ% (Anaesthetized cat; 3.0 mg/kg (i.v.), (10')): -27%; Blood pressure, Δ% (Anaesthetized cat; 10.0 mg/kg (i.v.), (10')): -62%; Heart rate, Δ% (Anaesthetized cat; 10.0 mg/kg (i.v.), (10')): -18%
6 | [O-][n+]1ccccc1CON1CCNC1=Nc1c(Cl)cccc1Cl [Compound A, 2-([{2-[(2,6-Dichlorophenyl)imino]-1-imidazolidinyl}oxy]methyl)pyridine 1-oxide] | -0.2% | +15.2% | +0.3% | +3.3% | -3.1% | -9.6% | none | 3.5 | -5 | -5 | -10 | -5 | -29 | -10 | Blood pressure, Δ% ([1]; 30.0 mg/kg (p.o.)): -10.5%; Heart rate, Δ% ([1]; 30.0 mg/kg (p.o.)): -3.6%; Blood pressure, Δ% ([1]; 100.0 mg/kg (p.o.)): 0%; Heart rate, Δ% ([1]; 100.0 mg/kg (p.o.)): 0%; addictive activity ([3]; concluded from lack of morphine-antagonistic activity): absence of an addictive activity; morphine-antagonistic activity ([3]; in vivo): no morphine-antagonistic activity could be found; activity against an electrical stimulation of the dental pulp, relative to morphine [4]: three-times stronger activity than morphine; cancellation of analgesia with naloxone (opiate receptor): not with the opiate receptor blocker naloxone; cancellation of analgesia with yohimbine (α-adrenergic receptor): can be cancelled out
7 | CC(ON1CCNC1=Nc1c(Cl)cccc1Cl)c1cc[n+]([O-])cc1 (centres unmarked) [E, 4-(1-[{2-[(2,6-Dichlorophenyl)imino]-1-imidazolidinyl}oxy]ethyl)pyridine1-oxide] | – | – | +10.2% | +4.0% | -13.9% | -13.2% | none | 7.3 | 0 | 0 | -4 | 0 | -14 | -12 | Blood pressure, Δ% ([1]; 30.0 mg/kg (p.o.)): +2.4%; Heart rate, Δ% ([1]; 30.0 mg/kg (p.o.)): -9.9%
8 | Cc1ccc(CON2CCNC2=Nc2c(Cl)cccc2Cl)[n+]([O-])c1 [F, 2-([{2-[(2,6-Dichlorophenyl)imino]-1-imidazolidinyl}oxy]methyl)-5-methylpyridin 1-oxide] | -9.6% | -4.9% | -10.4% | -5.5% | – | – | none | 27 | 0 | 0 | 0 | 0 | -10 | 0 | –
